Assay results published in ChEMBL document CHEMBL4041516, “SAR study of 5-alkynyl substituted quinazolin-4(3H)-ones as phosphoinositide 3-kinase delta (PI3Kδ) inhibitors” (Eur J Med Chem, 2017).
The source made the active and inactive calls. No cut-off for these calls is given here.

Assays:
[1] = biological target: T1, Phosphatidylinositol 4,5-bisphosphate 3-kinase catalytic subunit delta isoform (Homo sapiens, UniProt O00329); assay: Inhibition of PI3Kdelta (unknown origin) using PIP2 as substrate measured after 30 mins by HTRF assay
T1 sequence (O00329 whole entry): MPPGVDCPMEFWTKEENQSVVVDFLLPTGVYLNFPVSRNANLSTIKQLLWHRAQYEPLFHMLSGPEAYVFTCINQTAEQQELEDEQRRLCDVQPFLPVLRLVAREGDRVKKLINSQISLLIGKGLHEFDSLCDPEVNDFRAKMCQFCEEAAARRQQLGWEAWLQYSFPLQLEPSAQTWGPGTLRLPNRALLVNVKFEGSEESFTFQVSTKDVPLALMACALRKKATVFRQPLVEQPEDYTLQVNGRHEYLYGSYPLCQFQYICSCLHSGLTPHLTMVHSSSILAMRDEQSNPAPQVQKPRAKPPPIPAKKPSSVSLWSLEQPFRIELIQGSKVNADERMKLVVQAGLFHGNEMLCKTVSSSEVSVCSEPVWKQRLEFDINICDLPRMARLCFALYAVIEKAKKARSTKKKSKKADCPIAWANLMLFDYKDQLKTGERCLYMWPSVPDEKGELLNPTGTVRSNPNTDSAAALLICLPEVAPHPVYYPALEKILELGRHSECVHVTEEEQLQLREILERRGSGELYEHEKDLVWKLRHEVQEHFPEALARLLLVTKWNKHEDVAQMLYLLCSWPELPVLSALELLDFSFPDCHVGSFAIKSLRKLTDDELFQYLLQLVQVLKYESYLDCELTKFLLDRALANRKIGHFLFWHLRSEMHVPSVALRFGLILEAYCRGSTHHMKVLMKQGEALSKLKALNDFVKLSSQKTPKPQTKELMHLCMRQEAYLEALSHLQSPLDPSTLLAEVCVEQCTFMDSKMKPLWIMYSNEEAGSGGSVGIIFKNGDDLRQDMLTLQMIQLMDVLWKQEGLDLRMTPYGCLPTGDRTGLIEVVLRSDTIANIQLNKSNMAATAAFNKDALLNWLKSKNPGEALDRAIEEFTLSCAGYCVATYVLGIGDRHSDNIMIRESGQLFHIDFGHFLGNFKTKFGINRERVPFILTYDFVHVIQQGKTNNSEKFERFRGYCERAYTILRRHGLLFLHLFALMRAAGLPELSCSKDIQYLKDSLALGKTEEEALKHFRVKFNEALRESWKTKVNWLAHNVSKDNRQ

[2] = Antiproliferative activity against human WSU-DLCL2 cells measured after 72 hrs by alamar blue assay; format: functional, cell-based; details: WSUDLCL2, 72 h
[3] = Oral bioavailability in Sprague-Dawley rat at 10 mg/kg; format: ADME, organism-based; details: in vivo
Rattus norvegicus = assay: AUC (infinity) in Sprague-Dawley rat at 5 mg/kg, iv; format: ADME, organism-based; design: dose 5 mg/kg, time infinity, route intravenous; details: in vivo
[4] = AUC (infinity) in Sprague-Dawley rat at 10 mg/kg, po; format: ADME, organism-based; design: dose 10 mg/kg, route oral, time infinity; details: in vivo
[5] = biological target: T2, Phosphatidylinositol 4,5-bisphosphate 3-kinase catalytic subunit gamma isoform (Homo sapiens, UniProt P48736); assay: Inhibition of PI3Kgamma (unknown origin) using PIP2 as substrate measured after 30 mins by HTRF assay
T2 sequence (P48736 whole entry, canonical isoform): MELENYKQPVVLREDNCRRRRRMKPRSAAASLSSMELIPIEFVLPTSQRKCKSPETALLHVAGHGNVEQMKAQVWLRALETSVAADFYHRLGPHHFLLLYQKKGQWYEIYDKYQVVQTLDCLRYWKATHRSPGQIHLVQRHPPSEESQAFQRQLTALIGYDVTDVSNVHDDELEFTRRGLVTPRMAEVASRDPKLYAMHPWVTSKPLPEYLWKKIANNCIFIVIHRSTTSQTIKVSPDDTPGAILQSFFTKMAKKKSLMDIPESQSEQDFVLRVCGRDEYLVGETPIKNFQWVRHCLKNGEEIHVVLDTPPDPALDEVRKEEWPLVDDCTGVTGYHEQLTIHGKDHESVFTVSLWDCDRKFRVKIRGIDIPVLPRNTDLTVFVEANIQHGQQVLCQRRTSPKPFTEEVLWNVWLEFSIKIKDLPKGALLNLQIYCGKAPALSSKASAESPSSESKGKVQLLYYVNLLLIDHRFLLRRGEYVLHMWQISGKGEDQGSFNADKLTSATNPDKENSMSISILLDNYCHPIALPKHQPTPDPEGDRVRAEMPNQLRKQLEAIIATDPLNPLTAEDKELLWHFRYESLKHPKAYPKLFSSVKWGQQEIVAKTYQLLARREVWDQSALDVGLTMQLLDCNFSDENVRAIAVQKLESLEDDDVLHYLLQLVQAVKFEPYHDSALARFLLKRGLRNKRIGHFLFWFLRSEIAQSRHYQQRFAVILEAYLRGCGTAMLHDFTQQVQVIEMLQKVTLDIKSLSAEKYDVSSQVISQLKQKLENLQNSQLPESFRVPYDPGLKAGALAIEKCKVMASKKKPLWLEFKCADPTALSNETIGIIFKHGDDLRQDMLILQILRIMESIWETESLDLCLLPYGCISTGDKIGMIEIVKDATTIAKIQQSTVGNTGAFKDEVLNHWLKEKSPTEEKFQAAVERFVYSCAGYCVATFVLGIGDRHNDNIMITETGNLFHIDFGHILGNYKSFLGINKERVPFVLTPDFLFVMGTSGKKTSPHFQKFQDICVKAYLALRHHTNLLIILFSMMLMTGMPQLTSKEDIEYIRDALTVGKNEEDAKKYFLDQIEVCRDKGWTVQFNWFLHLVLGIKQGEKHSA

[6] = Volume of distribution in Sprague-Dawley rat at 5 mg/kg, iv; format: ADME, organism-based; details: in vivo
[7] = biological target: T3, Phosphatidylinositol 4,5-bisphosphate 3-kinase catalytic subunit delta isoform (Homo sapiens) (UniProt O00329); assay: Inhibition of PI3Kdelta-mediated S6k1 phosphorylation at T389 in human SUDHL6 cells measured after 1 hr by Western blot analysis; format: cell-based
T3 sequence (whole entry): T1 sequence (O00329 whole entry)

[8] = AUClast in Sprague-Dawley rat at 10 mg/kg, po; format: ADME, organism-based; design: dose 10 mg/kg, time 0 - last, route oral; details: in vivo
[9] = biological target: T3, Phosphatidylinositol 4,5-bisphosphate 3-kinase catalytic subunit delta isoform (Homo sapiens); assay: Inhibition of PI3Kdelta-mediated Akt phosphorylation at […] in human MOLT4 cells measured after 1 hr by Western blot analysis; format: cell-based
[10] = biological target: T3, Phosphatidylinositol 4,5-bisphosphate 3-kinase catalytic subunit delta isoform (Homo sapiens); assay: Inhibition of PI3Kdelta-mediated Akt phosphorylation at […] in human SUDHL6 cells measured after 1 hr by Western blot analysis; format: cell-based
hERG (KCNH2) = hERG (KCNH2) (Homo sapiens, UniProt Q12809); assay: Inhibition of human ERG at 40 uM relative to control
Sequence of hERG (KCNH2) (Q12809 whole entry): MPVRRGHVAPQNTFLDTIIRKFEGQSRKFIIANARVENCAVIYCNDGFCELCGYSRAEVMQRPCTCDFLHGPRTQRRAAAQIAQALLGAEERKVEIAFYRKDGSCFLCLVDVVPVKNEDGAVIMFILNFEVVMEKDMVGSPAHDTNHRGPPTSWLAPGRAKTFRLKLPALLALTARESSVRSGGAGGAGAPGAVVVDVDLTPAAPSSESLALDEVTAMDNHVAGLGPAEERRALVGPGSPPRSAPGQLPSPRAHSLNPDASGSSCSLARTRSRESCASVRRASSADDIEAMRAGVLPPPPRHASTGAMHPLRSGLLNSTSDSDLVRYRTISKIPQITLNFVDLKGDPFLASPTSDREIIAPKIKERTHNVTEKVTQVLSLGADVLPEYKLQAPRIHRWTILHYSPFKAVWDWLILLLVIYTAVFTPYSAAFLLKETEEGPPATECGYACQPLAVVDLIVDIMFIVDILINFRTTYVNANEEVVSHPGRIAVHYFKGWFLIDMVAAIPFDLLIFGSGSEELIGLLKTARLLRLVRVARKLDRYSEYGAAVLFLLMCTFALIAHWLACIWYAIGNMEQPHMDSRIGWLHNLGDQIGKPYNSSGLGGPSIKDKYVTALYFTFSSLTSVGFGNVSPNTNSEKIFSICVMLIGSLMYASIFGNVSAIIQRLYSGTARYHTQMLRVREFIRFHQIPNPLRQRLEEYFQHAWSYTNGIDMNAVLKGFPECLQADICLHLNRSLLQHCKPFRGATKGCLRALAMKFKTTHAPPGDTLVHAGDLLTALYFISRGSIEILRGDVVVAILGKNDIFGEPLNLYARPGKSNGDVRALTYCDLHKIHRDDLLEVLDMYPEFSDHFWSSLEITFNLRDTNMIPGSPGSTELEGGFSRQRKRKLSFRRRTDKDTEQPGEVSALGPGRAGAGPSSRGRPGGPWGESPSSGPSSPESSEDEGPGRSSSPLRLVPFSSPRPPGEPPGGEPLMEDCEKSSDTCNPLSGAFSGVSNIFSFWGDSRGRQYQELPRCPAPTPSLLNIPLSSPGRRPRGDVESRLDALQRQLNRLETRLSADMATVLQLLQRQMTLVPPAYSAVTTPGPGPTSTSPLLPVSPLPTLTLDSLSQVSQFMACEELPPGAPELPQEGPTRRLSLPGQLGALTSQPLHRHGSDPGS

SU-DHL-1 = assay: Antiproliferative activity against human SU-DHL1 cells measured after 72 hrs by alamar blue assay; format: functional, cell-based; details: SU-DHL-1, 72 h
[11] = AUClast in Sprague-Dawley rat at 5 mg/kg, iv; format: ADME, organism-based; design: dose 5 mg/kg, time 0 - last, route intravenous; details: in vivo
HT = assay: Antiproliferative activity against human HT cells measured after 72 hrs by alamar blue assay; format: functional, cell-based
SU-DHL-6 = assay: Antiproliferative activity against human SUDHL6 cells measured after 72 hrs by alamar blue assay; format: functional, cell-based; details: SU-DHL-6, 72 h
[12] = biological target: T3, Phosphatidylinositol 4,5-bisphosphate 3-kinase catalytic subunit delta isoform (Homo sapiens); assay: Inhibition of PI3Kdelta-mediated Akt phosphorylation in human SUDHL6 cells at 3 nM measured after 1 hr by Western blot analysis; format: cell-based
SU-DHL10 = assay: Antiproliferative activity against human SU-DHL10 cells measured after 72 hrs by alamar blue assay; format: functional, cell-based; details: SU-DHL10, 72 h
NAMALVA = assay: Antiproliferative activity against human NAMALWA cells measured after 72 hrs by alamar blue assay; format: functional, cell-based
[13] = biological target: Voltage-gated inwardly rectifying potassium channel KCNH2 (Homo sapiens, UniProt Q12809); assay: Inhibition of human ERG; details: read-out: IC50
[14] = Half life in Sprague-Dawley rat at 5 mg/kg, iv; format: ADME, organism-based; details: in vivo
Pfeiffer = assay: Antiproliferative activity against human Pfeiffer cells measured after 72 hrs by alamar blue assay; format: functional, cell-based
KARPAS-422 = assay: Antiproliferative activity against human KARPAS422 cells measured after 72 hrs by alamar blue assay; format: functional, cell-based; details: KARPAS-422, 72 h
MOLT-4 = assay: Antiproliferative activity against human MOLT4 cells measured after 72 hrs by alamar blue assay; format: functional, cell-based; details: MOLT-4, 72 h
[15] = biological target: T3, Phosphatidylinositol 4,5-bisphosphate 3-kinase catalytic subunit delta isoform (Homo sapiens); assay: Inhibition of PI3Kdelta-mediated S6k1 phosphorylation at T389 in human MOLT4 cells measured after 1 hr by Western blot analysis; format: cell-based
[16] = Half life in Sprague-Dawley rat at 10 mg/kg, po; format: ADME, organism-based; details: in vivo
[17] = biological target: Phosphatidylinositol 4,5-bisphosphate 3-kinase catalytic subunit beta isoform (Homo sapiens, UniProt P42338); assay: Inhibition of PI3Kbeta (unknown origin) using PIP2 as substrate measured after 30 mins by HTRF assay
Sequence of Phosphatidylinositol 4,5-bisphosphate 3-kinase catalytic subunit beta isoform (P42338 whole entry, canonical isoform): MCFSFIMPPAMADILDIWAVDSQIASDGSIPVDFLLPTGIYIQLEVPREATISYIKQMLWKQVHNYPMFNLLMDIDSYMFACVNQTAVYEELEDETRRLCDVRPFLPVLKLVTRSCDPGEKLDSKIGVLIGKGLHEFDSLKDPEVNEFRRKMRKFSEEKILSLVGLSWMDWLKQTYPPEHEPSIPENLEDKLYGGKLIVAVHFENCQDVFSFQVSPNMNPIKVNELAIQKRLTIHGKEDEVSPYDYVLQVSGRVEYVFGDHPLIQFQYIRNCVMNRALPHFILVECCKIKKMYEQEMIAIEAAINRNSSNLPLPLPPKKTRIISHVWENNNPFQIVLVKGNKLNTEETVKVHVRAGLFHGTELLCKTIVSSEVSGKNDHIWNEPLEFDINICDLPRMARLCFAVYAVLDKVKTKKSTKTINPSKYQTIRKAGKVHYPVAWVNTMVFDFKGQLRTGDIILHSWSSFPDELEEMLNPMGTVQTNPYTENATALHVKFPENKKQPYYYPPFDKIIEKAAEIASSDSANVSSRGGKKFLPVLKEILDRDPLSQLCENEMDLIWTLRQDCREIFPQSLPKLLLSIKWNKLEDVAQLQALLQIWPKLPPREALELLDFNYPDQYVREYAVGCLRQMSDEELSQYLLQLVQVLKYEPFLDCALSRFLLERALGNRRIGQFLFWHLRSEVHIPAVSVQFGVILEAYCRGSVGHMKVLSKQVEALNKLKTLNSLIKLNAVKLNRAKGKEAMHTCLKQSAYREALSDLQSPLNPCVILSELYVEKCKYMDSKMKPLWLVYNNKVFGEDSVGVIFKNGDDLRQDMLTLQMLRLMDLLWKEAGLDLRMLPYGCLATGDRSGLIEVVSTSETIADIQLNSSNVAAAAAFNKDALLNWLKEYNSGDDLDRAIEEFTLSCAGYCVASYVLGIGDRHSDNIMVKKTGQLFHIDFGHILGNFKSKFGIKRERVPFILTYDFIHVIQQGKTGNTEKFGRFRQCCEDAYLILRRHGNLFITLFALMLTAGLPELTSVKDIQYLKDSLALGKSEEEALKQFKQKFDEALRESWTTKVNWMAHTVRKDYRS

[18] = biological target: T4, Phosphatidylinositol 4,5-bisphosphate 3-kinase catalytic subunit alpha isoform (Homo sapiens, UniProt P42336); assay: Inhibition of PI3Kalpha (unknown origin) using PIP2 as substrate measured after 30 mins by HTRF assay
T4 sequence (P42336 whole entry, canonical isoform): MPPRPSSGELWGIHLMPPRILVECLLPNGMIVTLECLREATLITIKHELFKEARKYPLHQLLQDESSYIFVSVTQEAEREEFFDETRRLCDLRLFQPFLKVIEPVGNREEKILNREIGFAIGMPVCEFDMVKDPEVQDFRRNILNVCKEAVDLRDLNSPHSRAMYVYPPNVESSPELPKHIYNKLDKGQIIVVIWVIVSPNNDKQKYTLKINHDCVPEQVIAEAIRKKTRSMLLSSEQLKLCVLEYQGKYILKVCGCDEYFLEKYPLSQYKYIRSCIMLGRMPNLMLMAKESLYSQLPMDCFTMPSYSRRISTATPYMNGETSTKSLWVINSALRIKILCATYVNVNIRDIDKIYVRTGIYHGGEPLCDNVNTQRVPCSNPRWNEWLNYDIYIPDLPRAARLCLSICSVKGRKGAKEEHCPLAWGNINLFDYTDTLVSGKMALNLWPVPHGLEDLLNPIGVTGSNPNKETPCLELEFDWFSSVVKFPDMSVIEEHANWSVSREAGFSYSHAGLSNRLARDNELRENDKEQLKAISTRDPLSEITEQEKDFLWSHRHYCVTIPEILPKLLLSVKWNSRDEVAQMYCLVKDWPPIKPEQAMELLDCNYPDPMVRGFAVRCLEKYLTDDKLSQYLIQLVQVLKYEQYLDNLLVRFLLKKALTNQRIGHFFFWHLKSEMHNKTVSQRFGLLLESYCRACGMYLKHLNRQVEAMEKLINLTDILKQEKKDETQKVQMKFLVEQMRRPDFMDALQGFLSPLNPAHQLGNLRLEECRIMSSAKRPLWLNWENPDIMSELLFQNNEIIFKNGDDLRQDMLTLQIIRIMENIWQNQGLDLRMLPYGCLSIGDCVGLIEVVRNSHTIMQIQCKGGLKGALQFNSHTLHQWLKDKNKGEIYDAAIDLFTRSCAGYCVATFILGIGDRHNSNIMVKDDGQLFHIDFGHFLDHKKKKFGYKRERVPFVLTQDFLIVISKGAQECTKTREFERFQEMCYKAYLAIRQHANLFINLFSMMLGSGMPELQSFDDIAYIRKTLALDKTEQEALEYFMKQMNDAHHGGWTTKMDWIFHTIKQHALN

SUD4 = assay: Antiproliferative activity against human SU-DHL4 cells measured after 72 hrs by alamar blue assay; format: functional, cell-based; details: SU-DHL-4, 72 h
[19] = biological target: T4, Phosphatidylinositol 4,5-bisphosphate 3-kinase catalytic subunit alpha isoform; assay: Inhibition of PI3Kalpha (unknown origin) using biotinylated PIP2 as substrate after 2 hrs by TR-FRET assay
U-937 = assay: Inhibition of phorbol 12-myristate 13-acetate-induced peroxide production in human U937 cells; format: functional, cell-based
[20] = biological target: T2, Phosphatidylinositol 4,5-bisphosphate 3-kinase catalytic subunit gamma isoform; assay: Inhibition of PI3Kgamma (unknown origin) using biotinylated PIP2 as substrate after 2 hrs by TR-FRET assay
[21] = biological target: T1, Phosphatidylinositol 4,5-bisphosphate 3-kinase catalytic subunit delta isoform; assay: Inhibition of PI3Kdelta (unknown origin) using biotinylated PIP2 as substrate after 2 hrs by TR-FRET assay

## CC[C@H](Nc1nc(N)nc(N)c1C#N)c1nc2cccc(C#CCCCC(=O)N3CCOCC3)c2c(=O)n1-c1ccccc1
[1]
  IC50: 3.82 nM
[2]
  IC50: 5700 nM
[3]
  bioavailability: 29.7%
Rattus norvegicus
  AUC: 1057 ng·h/mL
[4]
  AUC(0-inf): 958 ng·h/mL
[5]
  IC50: 91.9 nM
[6]
  Vd: 0.545 L/kg
[7]
  inhibition: Dose-dependent effect
[8]
  AUC(0-t): 938 ng·h/mL
[9]
  inhibition: Dose-dependent effect
[10]
  inhibition: Dose-dependent effect
hERG (KCNH2)
  inhibition at 40 µM: 34.1%
SU-DHL-1
  IC50: 5600 nM
[11]
  AUC(0-t): 1050 ng·h/mL
HT
  IC50: 4900 nM
SU-DHL-6
  IC50: 7.6 nM
[12]
  inhibition: Active
SU-DHL10
  IC50: 1900 nM
NAMALVA
  IC50: 3300 nM
[13]
  IC50: > 40000 nM
[14]
  half-life: 1.28 h
Pfeiffer
  IC50: 1400 nM
KARPAS-422
  IC50: 2000 nM
MOLT-4
  IC50: 2400 nM
[15]
  inhibition: Dose-dependent effect
[16]
  half-life: 1.46 h
[17]
  IC50: 509 nM
[18]
  IC50: 591 nM
SUD4
  IC50: 1600 nM

## COCCOCCNC(=O)CCCC#Cc1cccc2nc(Cn3nc(-c4cccc(O)c4)c4c(N)ncnc43)n(Cc3ccccc3Cl)c(=O)c12
[19]
  IC50: 1490 nM
U-937
  IC50: 1.1 nM
[20]
  IC50: 47 nM
[21]
  IC50: 3 to 12 nM
